pIC50: −log10 of the molar value.
These molecules were tested against T1, human DGAT2 (hDGAT2) (Homo sapiens, UniProt Q96PD7) (assay: DGAT2 Enzymatic Activity Assay). Settings: membrane prep of Sf-9 cells expressing hDGAT2; 13C18-triolein product by LC/MS/MS; 25 μM diolein, 5 μM 13C oleoyl-CoA, rt.
T1 construct: made in house; host or cells: Sf-9 insect cells (baculovirus), membrane fraction
T1 sequence (Q96PD7 1-388): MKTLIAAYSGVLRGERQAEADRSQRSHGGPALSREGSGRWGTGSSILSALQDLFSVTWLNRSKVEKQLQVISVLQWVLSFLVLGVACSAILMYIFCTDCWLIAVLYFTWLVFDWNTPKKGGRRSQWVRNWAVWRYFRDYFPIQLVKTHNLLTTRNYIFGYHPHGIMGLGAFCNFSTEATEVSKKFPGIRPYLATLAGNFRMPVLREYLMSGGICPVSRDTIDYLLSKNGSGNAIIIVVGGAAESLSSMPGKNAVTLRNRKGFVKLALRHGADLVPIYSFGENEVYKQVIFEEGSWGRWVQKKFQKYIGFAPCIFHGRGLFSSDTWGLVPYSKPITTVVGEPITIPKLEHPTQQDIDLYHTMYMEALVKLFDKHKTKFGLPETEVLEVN
Assay type: biochemical
Method: Sf-9 insect cells were maintained in Grace's insect cell culture medium with 10% heated-inactivated fetal bovine serum, 1% Pluronic F-68 and 0.14 μg/ml Kanamycine sulfate at 27° C. in a shaker incubator. After infection with untagged baculovirus expressing human DGAT2 (hDGAT2) at multiplicity of infection (MOI) 3 for 48 hours, cells were harvested. Cell pellets were suspended in buffer containing 10 mM Tris-HCl pH 7.5, 1 mM EDTA, 250 mM sucrose and Complete Protease Inhibitor Cocktail (Sigma Aldrich), and sonicated on ice. Cell debris were removed by centrifugation at 2000×g for 15 minutes. Membrane fractions were isolated by ultracentrifugation (100,000×g), resuspended in the same buffer, and frozen (−80° C.) for later use. The protein concentration was determined with the Pierce™ BCA Protein Assay Kit (Thermo Fisher Scientific).
LC/MS/MS analyses were performed using Thermal Fisher's LX4-TSQ Vantage system. This system consists of an Agilent binary high-performance liquid chromatography (HPLC) pump and a TSQ Vantage triple quadrupole MS/MS instrument. For each sample, 2 μL samples from the top organic layer of in-plate liquid-liquid extraction were injected onto a Thermo Betabasic C4 column (2.1 mm×20 mm, 5 μm particle size). The samples were then eluted using the following conditions; mobile phase: Isopropanol:acetonitrile/10 mM ammonium formate=50/35/15 (v/v/v), flow rate: 0.8 mL/min, temperature: 25° C. Data was acquired in positive mode using a heated electrospray ionization (HESI) interface. The operational parameters for the TSQ Vantage MS/MS instrument were a spray voltage of 3000 V, capillary temperature of 280° C., vaporizer temperature 400° C., sheath gas 45 arbitrary unit. Aux gas 10 arbitrary units. […] The peak area was integrated by Xcalibur Quan software. The ratio between the ^13C18 triolein generated in the reaction and spiked in internal standard ^13C21-triolein was used to generate percentage inhibition and IC50 values. Compound percentage inhibition was calculated by the following formula: Inhibition %=1−[(compound response−low control)/(high control−low control)]×100%.
DGAT2 activity was determined by measuring the amount of enzymatic product ^13C18-triolein (^13C-1,2,3-Tri(cis-9-octadecenoyl)glycerol) using the membrane prep mentioned above. The assay was carried out in ABgene 384-well assay plates in a final volume of 25 μL at rt.

pIC50 | Compound
8.30 | CC1(NC(=O)c2cn3cc(Oc4ncc(Cl)cc4OCC(F)(F)F)ccc3n2)CS(=O)(=O)C1 [Example 1, 6-[[5-Chloro-3-(2,2,2-trifluoroethoxy)-2-pyridyl]oxy]-N-(3-methyl-1,1-dioxo-thietan-3-yl)imidazo[1,2-a]pyridine-2-carboxamide]
8.24 | CCOc1cccnc1Oc1ccc2nc(C(=O)NC3(C)CCC(F)(F)CC3)cn2c1 [Example 3, N-(4,4-difluoro-1-methyl-cyclohexyl)-6-[(3-ethoxy-2-pyridyl)oxy]imidazo[1,2-a]pyridine-2-carboxamide]
7.44 | O=C(NC1(CC(F)(F)F)CCS(=O)(=O)CC1)c1cn2cc(Oc3ncc(Cl)cc3OCC(F)(F)F)ccc2n1 [Example 5, 6-[[5-chloro-3-(2,2,2-trifluoroethoxy)-2-pyridyl]oxy]-N-[1,1-dioxo-4-(2,2,2-trifluoroethyl)thian-4-yl]imidazo[1,2-a]pyridine-2-carboxamide]
8.33 | CC1(NC(=O)c2cn3cc(Oc4ncccc4OCC(F)(F)F)cc(F)c3n2)CCS(=O)(=O)CC1 [Example 7, 8-fluoro-N-(4-methyl-1,1-dioxo-thian-4-yl)-6-[[3-(2,2,2-trifluoroethoxy)-2-pyridyl]oxy]imidazo[1,2-a]pyridine-2-carboxamide]
8.85 | CCOc1cc(Cl)cnc1Oc1ccc2nc(C(=O)NC3(C)CCS(=O)(=O)CC3)cn2c1C [Example 8, 6-[(5-chloro-3-ethoxy-2-pyridyl)oxy]-5-methyl-N-(4-methyl-1,1-dioxo-thian-4-yl)imidazo[1,2-a]pyridine-2-carboxamide]
7.89 | Cc1cc2nc(C(=O)NC3(C)CCS(=O)(=O)CC3)cn2cc1Oc1ncc(Cl)cc1OCC1(F)CC1 [Example 10, 6-[[5-chloro-3-[(1-fluorocyclopropyl)methoxy]-2-pyridyl]oxy]-7-methyl-N-(4-methyl-1,1-dioxo-thian-4-yl)imidazo[1,2-a]pyridine-2-carboxamide]
7.64 | CC1(NC(=O)c2cn3cc(Oc4ncc(Cl)cc4OCC(F)F)ccc3n2)CS(=O)(=O)C1 [Example 11, 6-[[5-chloro-3-(2,2-difluoroethoxy)-2-pyridyl]oxy]-N-(3-methyl-1,1-dioxo-thietan-3-yl)imidazo[1,2-a]pyridine-2-carboxamide]
8.25 | Cc1cc2nc(C(=O)NC3(CC(F)(F)F)CCS(=O)(=O)CC3)cn2cc1Oc1ncc(Cl)cc1OCC(F)(F)F [Example 12, 6-[[5-chloro-3-(2,2,2-trifluoroethoxy)-2-pyridyl]oxy]-N-[1,1-dioxo-4-(2,2,2-trifluoroethyl)thian-4-yl]-7-methyl-imidazo[1,2-a]pyridine-2-carboxamide]
8.37 | CC1(NC(=O)c2cn3cc(Oc4ncc(Cl)cc4OCC(F)(F)F)c(Cl)cc3n2)CCS(=O)(=O)CC1 [Example 13, 7-chloro-6-[5-chloro-3-(2,2,2-trifluoroethoxy)pyridine-2-yl]oxy-N-(4-methyl-1,1-dioxo-thian-4-yl)imidazo[1,2-a]pyridine-2-carboxamide]
8.28 | CC1(NC(=O)c2cn3cc(Oc4ncccc4OCC(F)(F)F)ccc3n2)CCS(=O)(=O)CC1 [Example 14, N-(4-methyl-1,1-dioxo-thian-4-yl)-6-[[3-(2,2,2-trifluoroethoxy)-2-pyridyl]oxy]imidazo[1,2-a]pyridine-2-carboxamide]
7.96 | Cc1c(Oc2ncc(Cl)cc2OCC(F)(F)F)cc(F)c2nc(C(=O)NC3(C)CCS(=O)(=O)CC3)cn12 [Example 15, 6-[[5-chloro-3-(2,2,2-trifluoroethoxy)-2-pyridyl]oxy]-8-fluoro-5-methyl-N-(4-methyl-1,1-dioxo-thian-4-yl)imidazo[1,2-a]pyridine-2-carboxamide]
8.35 | O=C(N[C@H]1CCCC(F)(F)[C@@H]1O)c1cn2cc(Oc3ncc(F)cc3OCC(F)(F)F)ccc2n1 [Example 16, N-[(1S,2R)-3,3-difluoro-2-hydroxy-cyclohexyl]-6-[[5-fluoro-3-(2,2,2-trifluoroethoxy)-2-pyridyl]oxy]imidazo[1,2-a]pyridine-2-carboxamide]

Source: US20260176267A1, “PREPARATION OF IMIDAZOPYRIDINE AND IMIDAZOPYRIDAZINE DERIVATIVES AS NOVEL DIACYLGLYCERIDE O-ACYLTRANSFERASE 2 INHIBITORS” (Merck Sharp & Dohme LLC, priority 2022, published 2026)
